Experimental data from patent US6258829A, “Cycloalka[b]pyridine-3-carbonylguanidine derivatives, process for producing the same, and drugs containing the same” (priority 1997, dated 2001).
Structures can show the parent of a compound that is named as a salt. Where two headings read alike, the source gives them in different places.

How the values were obtained:
[1] = biological target: T1, Na^+ /H^+ exchange transport (rat platelets) (Rattus norvegicus, UniProt P26431); assay: Inhibition studies on Na^+ /H^+ exchange transport: swelling of rat platelets induced by sodium propionate; format: cell-based, rat (Wistar); conditions: rat platelet swelling, sodium propionate buffer pH 6.7, 20 seconds; 300 μM amiloride = 100% inhibition; read-out: IC5O value (inhibitory actions of test compounds on Na^+ /H^+ exchange transport)
T1 construct: the thus collected supernatant was used as platelet rich plasma; endogenous in cells; host or cells: platelets (platelet rich plasma) of Wistar rat
Method: The Na^+ /H^+ exchange transport inhibitory activity was measured in accordance with the method of Scholz et al. [Br. J. Pharmacol., 109, 562 (1993)], using the swelling of rat platelets induced by sodium propionate as an index.
Under ether anesthesia, blood sample (8 ml) was collected from the abdominal aorta of Wistar rat and mixed with 1 ml of acid citrate dextrose as an anticoagulant. The resulting mixture was immediately centrifuged at 90×g for 10 minutes, and the thus collected supernatant was used as platelet rich plasma. Next, the thus prepared platelet rich plasma (10×10^6 platelets/50 μl) was added to 250 μl of 140 mM sodium propionate buffer (pH 6.7, 1% dimethyl sulfoxide in final concentration) containing each test compound dissolved in dimethyl sulfoxide, and the decrease in absorbance caused by the swelling of platelets was periodically measured using Hema-Tracer (manufactured by Nk).
The decreased absorbance ratio 20 seconds after the addition of platelet rich plasma was measured as the Na^+ /H^+ exchange activity, and the inhibitory activity of each test compound was expressed as relative activity when the action of 300 μM amiloride was defined as 100% inhibition.
In this case, each test result was evaluated from 50% inhibition concentration (IC50 value) by using probit methods.

[2] = background statement; cited from earlier work
[3] = tested on: Na^+ /H^+ exchange transport; conditions: background statement, Circulation, 79, 1257 (1989); cited from earlier work
male SD rats [4] = tested on: male SD rats; parameters: species or system rat (SD); conditions: rat, in vivo, iv, 10 mg/kg
male SD rats [5] = tested on: male SD rats; parameters: species or system rat (SD); conditions: rat, in vivo, iv, 100 mg/kg

T1 sequence (P26431 whole entry): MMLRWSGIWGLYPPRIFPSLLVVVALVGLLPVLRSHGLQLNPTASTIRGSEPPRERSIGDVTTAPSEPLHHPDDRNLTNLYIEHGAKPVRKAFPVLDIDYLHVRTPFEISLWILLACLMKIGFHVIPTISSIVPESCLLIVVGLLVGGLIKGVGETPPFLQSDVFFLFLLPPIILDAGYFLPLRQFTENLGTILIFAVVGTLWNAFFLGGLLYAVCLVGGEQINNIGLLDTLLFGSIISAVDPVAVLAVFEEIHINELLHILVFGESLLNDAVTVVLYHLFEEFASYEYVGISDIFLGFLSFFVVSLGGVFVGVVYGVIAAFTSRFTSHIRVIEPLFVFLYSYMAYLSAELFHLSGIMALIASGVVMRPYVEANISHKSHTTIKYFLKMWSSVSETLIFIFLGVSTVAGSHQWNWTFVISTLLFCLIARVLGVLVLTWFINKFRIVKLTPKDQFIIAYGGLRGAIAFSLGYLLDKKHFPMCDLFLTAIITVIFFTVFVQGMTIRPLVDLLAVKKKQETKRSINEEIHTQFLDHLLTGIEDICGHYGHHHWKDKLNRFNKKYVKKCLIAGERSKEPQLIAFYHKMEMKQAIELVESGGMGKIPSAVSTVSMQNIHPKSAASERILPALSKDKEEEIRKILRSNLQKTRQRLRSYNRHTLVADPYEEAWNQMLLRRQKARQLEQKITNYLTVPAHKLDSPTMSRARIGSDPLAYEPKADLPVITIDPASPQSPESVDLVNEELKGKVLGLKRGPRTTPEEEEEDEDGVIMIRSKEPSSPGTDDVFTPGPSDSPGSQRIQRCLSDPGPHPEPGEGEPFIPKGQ

Row | SMILES | IC50 [1] | also measured
1 | Cc1nc2c(cc1C(=O)N=C(N)N)CCCC2O (stereo not drawn) [Compound A, 8-Hydroxy-2-methyl-5,6,7,8-tetrahydrocyclohexa[b]pyridine-3-carbonylguanidine] | 100 to 990 nM | –
2 | Cc1nc2c(cc1C(=O)N=C(N)N)CC(C)CC2 (stereo not drawn) [Compound B, 2,6-Dimethyl-5,6,7,8-tetrahydrocyclohexa[b]pyridine-3-carbonylguanidine] | ≤ 99 nM | –
3 | CCc1nc2c(cc1C(=O)N=C(N)N)CCCCC2 [Compound C, 2-Ethyl-6,7,8,9-tetrahydro-5H-cyclohepta[b]pyridine-3-carbonylguanidine] | ≤ 99 nM | –
4 | Cc1nc2c(cc1C(=O)N=C(N)N)C(O)CCCC2 (stereo not drawn) [Compound D, 5-Hydroxy-2-methyl-6,7,8,9-tetrahydro-5H-cyclohepta[b]pyridine-3-carbonylguanidine] | 100 to 990 nM | –
5 | Cc1nc2c(cc1C(=O)N=C(N)N)CCCCC2C (stereo not drawn) [Compound E, 2,9-Dimethyl-6,7,8,9-tetrahydro-5H-cyclohepta[b]pyridine-3-carbonylguanidine] | ≤ 99 nM | –
6 | Cc1nc2c(cc1C(=O)N=C(N)N)CCCC=C2 [Compound K, 2-Methyl-6,7-dihydro-5H-cyclohepta[b]pyridine-3-carbonylguanidine] | ≤ 99 nM | –
7 | N=C(N)NC(=O)c1nc(Cl)c(N)nc1N [amiloride] | – | accompanying actions [2]: accompanies hypotensive action and salt excretion action; anti-arrhythmic action [2]: weak; Na^+ /H^+ exchange transport inhibitory action [3]: has a Na^+ /H^+ exchange transport inhibitory action
8 | Cc1nc2c(cc1C(=O)N=C(N)N)CCCC=C2 [maleic acid salt of the compound (K), 2-Methyl-6,7-dihydro-5H-cyclohepta[b]pyridine-3-carbonylguanidine maleate] | – | death cases (male SD rats [4]): no death cases were found; toxic changes attributable to the compound (K) (male SD rats [4]): no toxic changes attributable to the compound (K) were observed; death cases (male SD rats [5]): no death cases were found; toxic changes attributable to the compound (K) (male SD rats [5]): no toxic changes attributable to the compound (K) were observed

Second part, led by results:

Row | IC50 [1] | SMILES | also measured
9 | ≤ 99 nM | COC1CCCCc2cc(C(=O)N=C(N)N)c(C)nc21 (stereo not drawn) [Compound F, 9-Methoxy-2-methyl-6,7,8,9-tetrahydro-5H-cyclohepta[b]pyridine-3-carbonylguanidine] | –
10 | 100 to 990 nM | NC(N)=NC(=O)c1cc2c(nc1C(F)(F)F)CCCCC2 [Compound G, 2-Trifluoromethyl-6,7,8,9-tetrahydro-5H-cyclohepta[b]pyridine-3-carbonylguanidine] | –
11 | ≤ 99 nM | NC(N)=NC(=O)c1cc2c(nc1Cl)CCCCC2 [Compound H, 2-Chloro-6,7,8,9-tetrahydro-5H-cyclohepta[b]pyridine-3-carbonylguanidine] | –
12 | ≥ 1000 nM | COc1nc2c(cc1C(=O)N=C(N)N)CCCCC2 [Compound I, 2-Methoxy-6,7,8,9-tetrahydro-5H-cyclohepta[b]pyridine-3-carbonylguanidine] | –
13 | ≥ 1000 nM | NC(N)=NC(=O)c1cc2c(nc1-c1cccnc1)CCCCC2 [Compound J, 2-(3-Pyridyl)-6,7,8,9-tetrahydro-5H-cyclohepta[b]pyridine-3-carbonylguanidine] | –
